Experimental data taken from patent US20070043108A1, “Use of equol for ameliorating or preventing neuropsychiatric and neurodegenerative diseases or disorders” (priority 2002, published 2007).

Key:
[1] = system: Male Long-Evans rats; test: Example 13: racemic equol injections in male rats on Phyto-Free diet; format: in vivo, rat
Source text: Prior to initiation of a Phyto-Free diet period Male Long-Evans rats are fed a Phyto-200 diet, as described in previous examples. The rats are placed on a diet containing the Phyto-Free diet at approximately 52 days of age and randomly assigned to three groups. Baseline body weights after 14 days and 21 days on the Phyto-Free diet for all rats are similar, shown in FIGS. 43 and 44, respectively. Beginning at 73 days of age, rats receive daily subcutaneous 0.1 cc injections of vehicle (peanut oil), 1 milligram of a racemic mixture of equol in vehicle (0.83 mg/kg body weight/day), or 5 milligrams of a racemic mixture of equol in vehicle (4.2 mg/kg body weight/day) once every three days.

[2] = system: GDX males; test: Examples 5 and 6: gonadectomized (GDX) male rats treated with DHTP, equol or both; histology; format: in vivo, rat
Method: One week following arrival, animals are gonadectomized (GDX) under isoflurane anesthesia and allowed to recover for 7 days. Following recovery, animals are assigned to the following groups 1) DMSO, 2) DHTP (2 mg/1 kg), 3) racemic equol (0.25 mg/kg), or 4) both DHTP and racemic equol. Injections are given subcutaneously daily for 4 days. Animals are killed via decapitation and trunk blood and tissues are collected for analysis.
Tissues, including prostate, testes and epididymis, are removed from the animal, dissected free of fat and connective tissues, weighed, fixed by immersion in 4% paraformaldehyde, and then sectioned at 15 μm on a cryostat. Tissue sections are mounted on charged slides (Superfrost Plus, Fisher Scientific, Pittsburgh, Pa.) prewarmed to 23° C., and stained with hematoxylin and eosin (H&E), dehydrated in ascending alcohol and cleared with xylene.

[3] = system: adult Long-Evans male rats; test: Example 18: elevated plus maze, body weight and hypothalamic volumes in adult male rats treated with equol; format: in vivo, rat
Source text: In this study, anxiety-related behaviors were examined along with hormone levels in adult Long-Evans male rats exposed to equol. A known and accepted animal behavioral test for psychiatric disorders in humans, such as elevated plus maze (EPM) was used for this purpose (P. Willner, in Behavioral Models in Psychopharmacology: Theoretical, Industrial and Clinical Perspectives, New York, Cambridge Univ. Press, 1991; M. A. Geyer & A. Markou, in Psychopharmacology: The Fourth Generation of Progress, NY, Raven Press, pp. 787-798, 1995; and R. Hitzemann, Alcohol & Res. Health, 24: 149-158, 2000).
The EPM test relies on the inherent conflict between exploration of a novel environment and avoidance of its aversive features. Typically, animals spend little time and make few entries into the open arms (new environment) compared to the closed arms of the maze (secure environment). For example, an anti-anxiety agent or drug would increase the number of entries into and total time spent in the open arms of the maze.
Male rats 50 days of age were given a diet low in phytoestrogens (10 ppm of isoflavones) and remained on this diet until 215 days of age. At 150 days of age the rats were age and body weight matched and then divided into control or equol treatment groups. Starting at 190 days, the male rats received daily subcutaneous (0.1 cc) injections of control vehicle (DMSO) or equol (2.5 mg/Kg) for 25 consecutive days.
After 15 days on the treatments the animals were tested in the EPM that was video-taped for 3 minutes and later recorded for the number of entries into—and the percentage of total time spent—on the open arms via AnyMaze® computer software.
At 215 days of age the animals were sacrificed and body/prostate weights, serum hormone and isoflavone levels were determined along with determining the volume of hypothalamic regions that are sensitive to hormones.
The brains were processed via standard staining and analyzed via Bioquant® for morphometric SDN and AVPV parameters by treatments.

[4] = molecular target: T1, ERβ (Rattus norvegicus, UniProt Q62986); test: Competition binding of equol enantiomers with [3H]E2 for in vitro translated ERβ
T1 construct: Full length rat ERα expression vector (pcDNA-ERα; RH Price UCSF) and ERβ expression vector (pcDNA-ERβ; T A Brown, Pfizer; made in house; host or cells: TnT-coupled rabbit reticulocyte lysate in vitro translation (Promega)
T1 sequence (Q62986 whole entry): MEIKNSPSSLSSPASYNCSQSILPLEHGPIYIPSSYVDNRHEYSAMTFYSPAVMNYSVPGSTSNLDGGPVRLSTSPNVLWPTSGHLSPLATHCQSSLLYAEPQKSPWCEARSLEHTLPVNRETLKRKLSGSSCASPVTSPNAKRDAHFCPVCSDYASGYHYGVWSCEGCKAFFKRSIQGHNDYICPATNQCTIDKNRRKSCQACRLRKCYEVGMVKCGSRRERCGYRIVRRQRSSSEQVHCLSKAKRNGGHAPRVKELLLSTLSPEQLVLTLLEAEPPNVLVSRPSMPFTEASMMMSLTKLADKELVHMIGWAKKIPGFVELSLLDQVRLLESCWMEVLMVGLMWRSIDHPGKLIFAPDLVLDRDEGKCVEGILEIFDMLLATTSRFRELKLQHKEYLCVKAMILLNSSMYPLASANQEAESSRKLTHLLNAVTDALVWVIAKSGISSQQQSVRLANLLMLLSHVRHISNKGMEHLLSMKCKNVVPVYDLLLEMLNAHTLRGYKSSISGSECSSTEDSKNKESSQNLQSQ
Method: In vitro binding studies were performed to examine the relative affinities of S— and R-enantiomeric equol with the estrogen receptors ERα and ERβ.
Synthesis of Hormone Receptor Proteins: Full length rat ERα expression vector (pcDNA-ERα; RH Price UCSF) and ERβ expression vector (pcDNA-ERβ; T A Brown, Pfizer, Groton, […].) were used to synthesize hormone receptors in vitro using the TnT-coupled reticulocyte lysate system (Promega, Madison, Wis.) with T7-RNA polymerase, during a 90 min reaction at 30° C. Translation reaction mixtures were stored at −80° C. until further use.
Saturation isotherms: In order to calculate and establish the binding affinity of the S-equol and R-equol enantiomers for ERα and ERβ, 100 μL aliquots of reticulocyte lysate supernatant were incubated at optimal time and temperature; 90 min at room temperature (ERβ) and 18 hrs at 4° C. (ERα), with increasing (0.01-100 nm) concentrations of [3H] […] These times were determined empirically and represent optimal binding of receptor with estrogen. Nonspecific binding was assessed using a 300-fold excess of the ER agonist diethylstilbestrol, in parallel tubes. Following incubation, bound and unbound [3H]E2 were separated by passing the incubation reaction through a 1 mL lipophilic Sephadex LH-20 (Sigma-Aldrich Co., Saint Louis, Mo.) column Columns were constructed by packing a disposable pipette tip (1 mL; Labcraft, Curtin Matheson Scientific, Inc, Houston, Tex.) with TEGMD (10 mm Tris-Cl, 1.5 mm EDTA, 10% glycerol, 25 mm molybdate, and 1 mm dithiothreitol, pH 7.4)-saturated Sephadex according to previously published protocols (Wanda et al., 1986; O'Keefe and Handa, 1990). For chromatography, the columns were re-equilibrated with TEGMD (100 μL), and the incubation reactions were added individually to each column and allowed to incubate on the column for an additional 30 min. Following this incubation, 600 μL of TEGMD were added to each column, flow-through was collected, 4 mL scintillation fluid was added, and samples were counted (5 min each) in an 2900 TR Packard scintillation counter (Packard Bioscience, Meriden, Conn.).
Competition binding studies were used to assess the estrogenic properties of equol's S-equol and R-equol enantiomers. Based on the ability of S and R to compete with [3H]

[5] = 25 consecutive days, n = 4, not significant vs control
[6] = after 15 days of treatment, vs controls

testes weight ([1]; 28 days after start of injections)	SMILES	reduction in adipose tissue mass ([1]; 101-day-old rats, vs controls)	body weights and average body weight gains ([1]; at 80 and 88 days of age, 1 or 5 mg racemic equol sc, vs controls)	average body weight gains ([1]; at 95 and 101 days, vs control)	LH, in combination with DHTP ([2]; GDX males, DHTP+equol)	prostate weight, concomitant treatment with DHTP ([2]; GDX males, DHTP+equol)	LH ([2]; GDX males, given alone, vs DMSO)	prostate weight ([2]; GDX males, given alone, vs vehicle-treated GDX)	plasma 5α-DHT, co-treatment of DHTP-treated animals with equol ([2]; GDX+equol+DHTP vs GDX+DHTP)	AVPV Volumes [3, 5] [mm^3 × 10^−3]	SDN Volumes [3, 5] [mm^3 × 10^−3]	number of entries into the open arms of the EPM [3, 6]	time spent on the open arms of the EPM [3, 6]	body weights ([3]; equol 2.5 mg/Kg sc daily for 25 days, vs control)	serum equol levels ([3]; equol-treated animals)	affinity for ERβ, fold less [4]	Kd ([4]; competition with [3H]E2, in vitro translated ER) [nM]
no significant alterations	Oc1ccc(C2COc3cc(O)ccc3C2)cc1 (racemic) [equol, 7-hydroxy-3(4′hydroxyphenyl)-chroman]	approximately 33%	not significantly different from controls	significantly reduced	blocks the negative feedback effects of DHTP on LH secretion	blocks the effects of DHTP	no effect on LH levels	no effect alone on prostate size	further elevated, although, not significantly	10.59 ± 1.6	46.3 ± 3.1	significantly greater	significantly greater	significantly decreased	equivalent to consuming a phytoestrogen-rich soy diet		
	Oc1ccc([C@@H]2COc3cc(O)ccc3C2)cc1 [R-equol]															approximately 100 fold	15.4 ± 1.31
